Measured values reported in ChEMBL document CHEMBL1201862, “PubChem BioAssay data set” (2004).
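Dose response: 5 concentrations. Exposure: 48 h. Format: 96-well plates. Endpoint: linear interpolation; highest concentration if not reached. Abbreviation: GI50, concentration required for 50% inhibition of growth.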 Activity calls are given as the source filed them. Rule as the data show it: active = GI50 up to about 1.1 µM and inactive = higher.

What was measured:
Assay in all cases: NCI-60 cell line screen, 48 h
A498 = test system: A498
A549 = test system: A549
CCRF-CEM = test system: CCRF-CEM
HCT-15 = test system: HCT-15
KM12 = test system: KM12
M19-MEL = test system: M19-MEL
NCI-H23 = test system: NCI-H23
NCI-H460 = test system: NCI-H460
OVCAR-3 = test system: OVCAR-3
OVCAR-4 = test system: OVCAR-4
SF-539 = test system: SF-539
U-251 = test system: U-251
UACC-62 = test system: UACC-62
RXF 393 = test system: RXF 393
SK-OV-3 = test system: SK-OV-3
Hs-578T = test system: Hs-578T
MCF7 = test system: MCF7
MDA-MB-231 = test system: MDA-MB-231
NCI/ADR-RES = test system: NCI/ADR-RES
PC-3 = test system: PC-3

Compound | GI50 (A498) | GI50 (A549) | GI50 (CCRF-CEM) | GI50 (HCT-15) | GI50 (KM12) | GI50 (M19-MEL) | GI50 (NCI-H23) | GI50 (NCI-H460) | GI50 (OVCAR-3) | GI50 (OVCAR-4) | GI50 (SF-539) | GI50 (U-251) | GI50 (UACC-62) | GI50 (RXF 393) | GI50 (SK-OV-3) | GI50 (Hs-578T) | GI50 (MCF7) | GI50 (MDA-MB-231) | GI50 (NCI/ADR-RES) | GI50 (PC-3)
CC(C)OP(=O)(OC(C)C)/C(=N/Nc1ccc([N+](=O)[O-])cc1)NCCN/C(=N\Nc1ccc([N+](=O)[O-])cc1)P(=O)(OC(C)C)OC(C)C | 3.7 µM (inactive) | 3.72 µM (inactive) | 2.84 µM (inactive) | 4.61 µM | 3.8 µM (inactive) | 5.85 µM (inactive) | 2.31 µM (inactive) | 3.71 µM (inactive) | 3.62 µM (inactive) | 7.19 µM (inactive) | > 100 µM (inactive) | 3.3 µM (inactive) | 2.15 µM (inactive) | – | – | – | – | – | – | –
Cc1cc2c(cc1CO)N1Cc3cc(C)c(CO)cc3N(C2)C1 | – | > 100 µM (inactive) | > 100 µM (inactive) | – | > 100 µM (inactive) | > 100 µM (inactive) | > 100 µM (inactive) | > 100 µM (inactive) | > 100 µM (inactive) | > 100 µM (inactive) | > 100 µM (inactive) | > 100 µM (inactive) | > 100 µM (inactive) | > 100 µM (inactive) | > 100 µM (inactive) | – | – | – | – | –
COC(=O)C(Cc1nc2ccccc2nc1O)C(=O)C(=O)Nc1ccc(OC)cc1[N+](=O)[O-] (stereo unspecified) | – | > 100 µM (inactive) | > 100 µM (inactive) | > 100 µM | > 100 µM (inactive) | > 100 µM (inactive) | > 100 µM (inactive) | > 100 µM (inactive) | > 100 µM (inactive) | > 100 µM (inactive) | > 100 µM (inactive) | > 100 µM (inactive) | > 100 µM (inactive) | – | > 100 µM (inactive) | – | – | – | – | –
CC1(C)OCC(C2OC(=O)C(OCc3ccccc3)=C2OCc2ccccc2)O1 (stereo unspecified) | 22.1 µM (inactive) | 32.9 µM (inactive) | 37.8 µM (inactive) | 30.9 µM | 32 µM (inactive) | – | 18.4 µM (inactive) | 41 µM (inactive) | 49.2 µM (inactive) | 42.2 µM (inactive) | 72.6 µM (inactive) | 39.2 µM (inactive) | 22.4 µM (inactive) | 49.1 µM (inactive) | 52.6 µM (inactive) | 70.6 µM (inactive) | 50.5 µM (inactive) | 24.6 µM (inactive) | 35.2 µM (inactive) | 21 µM (inactive)
COc1ccc(NC(=O)C(=O)Cc2nc3ccc(C(=O)c4ccccc4)cc3nc2O)c([N+](=O)[O-])c1 | 16.6 µM (inactive) | 47.1 µM (inactive) | 28.2 µM (inactive) | 34 µM | 6.93 µM (inactive) | – | 20.5 µM (inactive) | 32.1 µM (inactive) | 22.5 µM (inactive) | 43.7 µM (inactive) | 33 µM (inactive) | 41.9 µM (inactive) | 21.3 µM (inactive) | 23.1 µM (inactive) | 52 µM (inactive) | > 100 µM (inactive) | 41.6 µM (inactive) | 23 µM (inactive) | 11.5 µM (inactive) | 18.5 µM (inactive)
Cn1c2ccccc2c2c3c(=O)[nH][nH]c(=O)c3c3c4ccccc4n(C)c3c21 | > 100 µM (inactive) | > 100 µM (inactive) | 0.655 µM (active) | 99.1 µM | 30.1 µM (inactive) | – | 12.5 µM (inactive) | 16.9 µM (inactive) | > 100 µM (inactive) | > 64.3 µM (inactive) | > 100 µM (inactive) | > 100 µM (inactive) | > 100 µM (inactive) | > 100 µM (inactive) | > 100 µM (inactive) | > 100 µM (inactive) | 0.133 µM (active) | > 100 µM (inactive) | > 58.2 µM (inactive) | > 100 µM (inactive)
Cc1cnc2c(c1)C(=O)C1=C(C2=O)C2OC(=O)CC2OC1(C)C (stereo unspecified) | 1.83 µM (inactive) | 1.53 µM (inactive) | 0.0239 µM (active) | 0.0643 µM | 0.431 µM (active) | – | 0.321 µM (active) | 0.76 µM (active) | < 0.01 µM (active) | 0.159 µM (active) | 0.237 µM (active) | 0.109 µM (active) | 0.179 µM (active) | 0.205 µM (active) | 1.35 µM (inactive) | 0.301 µM (active) | 0.0533 µM (active) | 0.0764 µM (active) | 0.625 µM (active) | 0.16 µM (active)
NC1CC(n2ccc(=O)[nH]c2=O)OC1C(O)CO (stereo unspecified) | – | > 100 µM (inactive) | > 100 µM (inactive) | > 100 µM | > 100 µM (inactive) | > 100 µM (inactive) | > 100 µM (inactive) | > 100 µM (inactive) | > 100 µM (inactive) | > 100 µM (inactive) | > 100 µM (inactive) | > 100 µM (inactive) | > 100 µM (inactive) | > 100 µM (inactive) | > 100 µM (inactive) | – | – | – | – | –
Fc1ccc(C2SCc3nc4ccccc4n32)cc1 (stereo unspecified) | – | 45.3 µM (inactive) | 42.1 µM (inactive) | 34.8 µM | 37.2 µM (inactive) | 41 µM (inactive) | 28.9 µM (inactive) | 34.4 µM (inactive) | 24.4 µM (inactive) | 36.3 µM (inactive) | > 100 µM (inactive) | 51.3 µM (inactive) | > 10 µM (inactive) | 17.2 µM (inactive) | 94.6 µM (inactive) | – | – | – | – | –
CC(C)(CCc1nc2ccccc2[nH]1)C(=O)O | > 49.2 µM (inactive) | > 100 µM (inactive) | > 100 µM (inactive) | > 100 µM | > 100 µM (inactive) | – | > 100 µM (inactive) | > 100 µM (inactive) | > 100 µM (inactive) | > 100 µM (inactive) | > 100 µM (inactive) | > 100 µM (inactive) | > 100 µM (inactive) | > 100 µM (inactive) | > 100 µM (inactive) | > 100 µM (inactive) | > 100 µM (inactive) | > 100 µM (inactive) | > 100 µM (inactive) | > 100 µM (inactive)
Cc1cc2nc3[nH]c4c(Cl)cc(Cl)cc4c3nc2cc1C | > 100 µM (inactive) | > 100 µM (inactive) | 72.3 µM (inactive) | > 100 µM | > 100 µM (inactive) | – | > 100 µM (inactive) | > 100 µM (inactive) | > 100 µM (inactive) | > 100 µM (inactive) | 36.5 µM (inactive) | > 100 µM (inactive) | 84.7 µM (inactive) | 31.6 µM (inactive) | > 100 µM (inactive) | > 100 µM (inactive) | > 100 µM (inactive) | > 100 µM (inactive) | > 100 µM (inactive) | > 100 µM (inactive)
COc1ccc(NC(=S)N/N=C(\c2ccccc2)c2ccccn2)cc1 | 0.587 µM (active) | 0.128 µM (active) | 0.01 µM (active) | < 0.01 µM | 0.0479 µM (active) | – | < 0.01 µM (active) | 0.0931 µM (active) | < 0.01 µM (active) | 0.7 µM (active) | 0.348 µM (active) | < 0.0198 µM (active) | 0.104 µM (active) | 0.603 µM (active) | 0.028 µM (active) | 10.3 µM (inactive) | < 0.01 µM (active) | < 0.01 µM (active) | < 0.0904 µM (active) | < 0.01 µM (active)
O=C(NCCc1ccccc1)c1cc(/C=C/c2cc(O)ccc2O)ccc1O | 4.4 µM (inactive) | 10.3 µM (inactive) | 2.11 µM (inactive) | 2.71 µM | 6.05 µM (inactive) | – | 4.95 µM (inactive) | 9.44 µM (inactive) | 2.67 µM (inactive) | 2.27 µM (inactive) | 2.38 µM (inactive) | 2.36 µM (inactive) | 2.03 µM (inactive) | 1.93 µM (inactive) | 13 µM (inactive) | 5.2 µM (inactive) | 2.62 µM (inactive) | 4.36 µM (inactive) | 3.43 µM (inactive) | 3.56 µM (inactive)
C/C(=N/NC(=S)Nc1cccc(C)c1)c1ccccn1 | 1.56 µM (inactive) | 1.87 µM (inactive) | < 0.01 µM (active) | 0.0119 µM | 0.141 µM (active) | – | < 0.01 µM (active) | 0.284 µM (active) | < 0.01 µM (active) | 1.98 µM (inactive) | 1.57 µM (inactive) | 0.0208 µM (active) | 0.331 µM (active) | 1.12 µM (inactive) | 0.025 µM (active) | 3.82 µM (inactive) | < 0.01 µM (active) | < 0.01 µM (active) | < 0.01 µM (active) | < 0.01 µM (active)
O=C([C@H](O)[C@@H](O)c1cccc(Cl)c1)C12CC3CC(CC(C3)C1)C2 | 2.31 µM (inactive) | 2.19 µM (inactive) | 1.14 µM (inactive) | 2.24 µM | 2.26 µM (inactive) | – | 1.79 µM (inactive) | 1.85 µM (inactive) | 1.94 µM (inactive) | 2.4 µM (inactive) | 1.77 µM (inactive) | 1.53 µM (inactive) | 1.73 µM (inactive) | 2.37 µM (inactive) | 8.71 µM (inactive) | 2.61 µM (inactive) | 0.667 µM (active) | 2.12 µM (inactive) | 2.27 µM (inactive) | 1.87 µM (inactive)
COc1ccc(C2(O)c3ccccc3C(=O)N(C)C2(O)c2ccc(OC)cc2)cc1 (stereo unspecified) | 73.1 µM (inactive) | 57.8 µM (inactive) | 51.8 µM (inactive) | 40.4 µM | 16.4 µM (inactive) | – | > 100 µM (inactive) | 35.2 µM (inactive) | 57 µM (inactive) | 25.2 µM (inactive) | > 100 µM (inactive) | 52.7 µM (inactive) | 48.1 µM (inactive) | > 100 µM (inactive) | > 100 µM (inactive) | 0.396 µM (active) | 54.5 µM (inactive) | > 100 µM (inactive) | 24 µM (inactive) | 33.9 µM (inactive)
